Measurements from patent publication US20230277508A1, “USE OF COMPOUND AS CYP2E1 INHIBITOR” (SHANGHAI LING XI BIOTECHNOLOGY DEVELOPMENT CO., LTD., priority 2020, published 2023).
pIC50: −log10 of the molar value.

Columns and labels:
GL261 cells / astrocytes = assay: GL261 cells co-cultivated with M2 astrocytes; assay type: cell-based, mouse; conditions: SMI0 50 μmol/L vs M2 astrocyte co-cultivation group, P<0.05
Experimental: Experimental method: 10 1-2 d newborn C57BL/6 WT mice and 6 CYP2E1^−/− mice were taken, primary microglial cells and astrocytes were collected and inoculated into 6-well plates, and 24 h later, culture supernatants were taken and co-cultivated with glioma cells. Experimental groups: control group; M2 model group; high-concentration, medium-concentration, and low-concentration SMI0 (50 μmol/L, 12.5 μmol/L, and 3.1 μmol/L) groups; and CYP2E1 gene-knockout group. 24 h later, supernatants were discarded; and […] and IL-13 each were added at 20 ng/mL to induce the transformation of microglial cells into the M2 type in the M2 model group and the high-concentration, medium-concentration, and low-concentration SMI0 groups, and different concentrations of SMI0 (50 μmol/L, 12.5 μmol/L, and 3.1 μmol/L) were also added in the intervention groups. The proliferation of glioma cells was determined by a CCK8 method, and an apoptosis proportion was determined by an Annexin V-FITC-PI apoptosis staining kit.

[1] = biological target: T1, human liver microsome CYP2E1 (Homo sapiens, UniProt P05181); assay: Determination of IC50 for a CYP2E1 inhibitory effect (CZX probe, mixed liver microsome); assay type: biochemical; conditions: mixed liver microsome of healthy individuals 0.3 mg/mL, 62.5 μM CZX, 1 mM NADPH, 30 min; read-out: IC50 for 2E1 inhibition
T1 construct: metabolic activity of a mixed liver microsome CYP2E1 of a healthy individual; from tissue; host or cells: mixed (pooled) human liver microsomes of healthy individuals
T1 sequence (P05181 whole entry): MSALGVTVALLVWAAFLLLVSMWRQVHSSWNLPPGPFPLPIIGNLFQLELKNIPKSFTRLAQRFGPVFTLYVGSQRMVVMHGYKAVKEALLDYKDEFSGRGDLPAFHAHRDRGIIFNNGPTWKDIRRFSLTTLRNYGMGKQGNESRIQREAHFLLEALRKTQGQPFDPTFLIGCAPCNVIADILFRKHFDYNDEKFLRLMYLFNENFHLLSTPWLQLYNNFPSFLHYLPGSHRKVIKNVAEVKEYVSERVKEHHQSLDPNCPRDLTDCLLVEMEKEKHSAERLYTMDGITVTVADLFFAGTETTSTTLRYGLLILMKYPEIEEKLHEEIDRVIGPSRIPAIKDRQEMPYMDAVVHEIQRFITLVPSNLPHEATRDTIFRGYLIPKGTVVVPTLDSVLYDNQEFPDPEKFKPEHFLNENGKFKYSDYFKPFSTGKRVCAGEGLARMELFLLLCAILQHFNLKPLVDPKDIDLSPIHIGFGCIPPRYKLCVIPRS
Experimental: CZX was used as a probe substrate to detect an inhibitory effect of an inhibitor to be tested on the metabolic activity of a mixed liver microsome CYP2E1 of a healthy individual (IC50: half inhibition concentration; Ki: inhibition constant; the smaller the IC50 and the smaller the Ki, the higher the inhibition intensity of the inhibitor), thereby determining an inhibitory effect of the inhibitor to be tested on the human liver microsome CYP2E1.
An incubation system in a total volume of 100 μL was adopted, including a substrate, an inhibitor of different concentrations, a liver microsomal protein, and phosphate-buffered saline (PBS). The incubation system was pre-incubated in a 37° C. water bath for 5 min, reduced coenzyme was added to allow a reaction for 30 min, and then the reaction was terminated in an ice bath. In a specific experiment, a concentration of an inhibitor can be selected as required.
In this example, the incubation system includes 62.5 μM CZX, 100 mM (pH=7.4) PBS, 0.3 mg/mL liver microsomal protein, and 1 mM NADPH.
In this example, the reaction is terminated with 1 mL of ethyl acetate. In other preferred examples, the reaction may also be terminated with 1 mL of methyl tert-butyl ether (MTBE), 1 mL of diethyl ether, or 100 μL of methanol.

[2] = test system: ovarian cancer ID8 cell line abdominal transplanted tumor; assay: Mouse ovarian cancer abdominal transplanted tumor model (ID8); assay type: in vivo, C57/6 mouse; conditions: SMI0 30 mg/kg ig daily, 30-day modeling
Experimental: Experimental method: A female C57/6 mouse ovarian cancer abdominal transplanted tumor model was constructed with an ovarian cancer murine ID8 cell line at a cell concentration of 2.5×10^6. A model group and an SMI0 intervention group were set for the experiment. The intervention group was intragastrically administered with the SMI0 compound at 30 mg/kg every day from three days before modeling to the end of the 30-day modeling (model group, n=10 mice; and SMI0 compound (30 mg/kg) group, n=11 mice). At the end of the experiment, blood was collected from the orbit, a body weight was measured, then the mice each were sacrificed, and ovary tissues were collected. Ovary tissue specimens were subjected to HE staining, and then the ovary tissue lesion and tumorigenesis of mice in each group were observed.

CYP2A6 = biological target: T2, CYP2A6 (Homo sapiens, UniProt P11509); assay: Determination of selectivity of a CYP2E1 inhibitor: CYP2A6; assay type: biochemical; conditions: mixed human liver microsome, 2.5 μM coumarin probe; read-out: IC50 for 2A6 inhibition
T2 construct: With a mixed liver microsome of a healthy individual as a research object; from tissue; host or cells: mixed (pooled) human liver microsomes of healthy individuals
T2 sequence (P11509 whole entry): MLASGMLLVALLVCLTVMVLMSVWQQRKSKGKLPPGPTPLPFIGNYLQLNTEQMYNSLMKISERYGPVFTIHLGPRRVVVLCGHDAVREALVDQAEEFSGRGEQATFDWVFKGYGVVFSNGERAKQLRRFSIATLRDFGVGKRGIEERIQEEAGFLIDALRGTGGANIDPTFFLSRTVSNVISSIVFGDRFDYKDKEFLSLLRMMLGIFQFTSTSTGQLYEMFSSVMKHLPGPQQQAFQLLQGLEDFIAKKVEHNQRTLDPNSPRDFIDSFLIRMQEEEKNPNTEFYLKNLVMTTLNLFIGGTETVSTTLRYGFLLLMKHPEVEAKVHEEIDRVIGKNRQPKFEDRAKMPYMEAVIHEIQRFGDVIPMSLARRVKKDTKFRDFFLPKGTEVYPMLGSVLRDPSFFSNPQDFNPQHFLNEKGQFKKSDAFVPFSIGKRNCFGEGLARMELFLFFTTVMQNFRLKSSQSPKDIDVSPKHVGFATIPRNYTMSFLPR
From the text: With a mixed liver microsome of a healthy individual as a research object, probe drugs CYP1A2, CYP2A6, CYP2B6, CYP2C8, CYP2C9, CYP2C19, CYP2D6, CYP2E1, and CYP3A4 were selected to determine an in vitro inhibitory effect of an inhibitor to be tested on the metabolism of the probe drugs CYP1A2, CYP2A6, CYP2B6, CYP2C8, CYP2C9, CYP2C19, CYP2D6, CYP2E1, and CYP3A4 for the mixed liver microsome of the healthy human, and the selectivity of the inhibitor to be tested for a CYP2E1 inhibitory effect was evaluated.
The CYP1A2 probe is 6.25 μM to 800 μM phenacetin or 27.5 μM to 12,520 μM caffeine; • the CYP2A6 probe is 0.156 μM to 20 μM coumarin or 12.5 μM to 2,000 μM nicotine; • the CYP2B6 probe is 7.8 μM to 500 μM bupropion or 0.25 mM to 30 mM cyclophosphamide; • the CYP2C8 probe is 2.5 μM to 80 μM paclitaxel or 0.125 μM to 128 μM amodiaquine; • the CYP2C9 probe is 31.25 μM to 2,000 μM tolbutamide or 0.1 μM to 200 μM diclofenac; • the CYP2C19 probe is 3.9 μM to 500 μM omeprazole or 1.95 μM to 1,000 μM mephenytoin; • the CYP2D6 probe is 0.625 μM to 96 μM dextromethorphan or 0.0195 μM to 80 μM propafenone; and • the CYP3A4 probe is 0.39 μM to 50 μM midazolam or 1.98 μM to 1,000 μM testosterone.
An incubation system in a total volume of 100 μL was adopted, including a substrate, an inhibitor of different concentrations, a liver microsomal protein, and PBS. […]

CC(=O)c1scnc1C [SMI0]
proliferation activity of GL261 cells (GL261 cells / astrocytes): significantly weakened
pIC50 [1]: 5.79
inhibition rate for the ascites weight [2]: 83.78%
ascites volume ([2]; vs model group): significantly reduced
body weight of mice ([2]; vs model group): significantly reduced
inhibition rate for tumor proliferation of the greater momentum ([2]; as high as): 58.70%
pIC50 (CYP2A6): 4.12
